Measured values taken from ChEMBL document CHEMBL1128083, “The anti-rheumatic potential of a series of 2,4-di-substituted-4H-naphtho[1,2-b]pyran-3-carbonitriles” (Bioorg Med Chem Lett, 1995).

What was measured:
[1] = Maximum concentration in plasma at Tmax; assay type: ADME, organism-based
[2] = organism: Oryctolagus cuniculus; assay: Tested for percent inhibition of Neutral metalloprotease in rabbit chondrocytes at 10 uM concentration; assay type: cell-based
[3] = organism: Oryctolagus cuniculus; assay: Tested for percent inhibition of Neutral metalloprotease in rabbit chondrocytes at 1 uM concentration; assay type: cell-based
[4] = organism: Rattus norvegicus; assay: Percent reduction in arthritis score was measured in CP-20961 injected rats on day 16; assay type: functional; design: scale not given: the % may be the effect or the level left
[5] = organism: Rattus norvegicus; assay: Percent inhibition of Concanavalin A stimulated cell proliferation of rat spleen lymphocytes at 0.01 uM; assay type: functional
[6] = organism: Rattus norvegicus; assay: Percent inhibition of Concanavalin A stimulated cell proliferation of rat spleen lymphocytes at 0.1 uM; assay type: functional
[7] = organism: Rattus norvegicus; assay: Percent inhibition of Concanavalin A stimulated cell proliferation of rat spleen lymphocytes at 1 uM; assay type: functional
[8] = organism: Rattus norvegicus; assay: Percent inhibition of Concanavalin A stimulated cell proliferation of rat spleen lymphocytes at 10 uM; assay type: functional
[9] = organism: Rattus norvegicus; assay: Percent inhibition of Concanavalin A stimulated cell proliferation of rat spleen lymphocytes at 0.001 uM; assay type: functional
[10] = Time at which the maximum concentration is achieved; assay type: ADME
[11] = organism: Oryctolagus cuniculus; assay: Tested for percent inhibition of Neutral metalloprotease in rabbit chondrocytes at 0.1 uM concentration; assay type: cell-based
[12] = Half life was evaluated; assay type: ADME
[13] = organism: Rattus norvegicus; assay: Percent reduction in arthritis score was measured in CP-20961 injected rats; NR is no reduction; assay type: functional, organism-based
[14] = organism: Oryctolagus cuniculus; assay: Tested for percent inhibition of Neutral metalloprotease in rabbit chondrocytes at 10 uM concentration; toxic; assay type: cell-based

Cmax [1] [ng/mL] | Tmax [10] [h] | half-life [12] [h] | SMILES | inhibition [2] [%] | inhibition [3] [%] | Activity [4] [%] | inhibition at 0.01 µM [5] [%] | inhibition at 0.1 µM [6] [%] | inhibition at 1 µM [7] [%] | inhibition at 10 µM [8] [%] | inhibition at 0.001 µM [9] [%] | inhibition [11] [%] | Activity [13] | inhibition [14] [%]
55 | 0.5 |  | N#CC1=C(N2C(=O)CCC2=O)Oc2c(ccc3ccccc23)C1c1cccnc1 (stereo not drawn) | 25 | 17 | 41 | -6 | -5 | 85 | 87 | 7 |  |  | 
 |  |  | O=C1CC(c2cccc([N+](=O)[O-])c2)c2ccc3ccccc3c2O1 (stereo not drawn) |  |  |  | 6 | 9 | 2 | 15 | 19 |  |  | 
 |  |  | N#CC1=C(n2cccc2)Oc2c(ccc3ccccc23)C1c1cccc([N+](=O)[O-])c1 (stereo not drawn) | 4 | -5 |  |  | -7 | 82 | 87 |  | 1 |  | 
 |  |  | N#Cc1c(N)nc2c(c1-c1cccc([N+](=O)[O-])c1)CCc1ccccc1-2 | 42 | 36 |  | 15 | 23 | 23 | 46 | 13 | 8 |  | 
 |  | ~1 | N#CC1=C(N)Oc2c(ccc3ccccc23)C1c1cccc([N+](=O)[O-])c1 (stereo not drawn) | 102 | 76 |  | 73 | 89 | 95 | 99 | 33 | 74 |  | 
178 | 4 |  | N#CC1=C(N2C(=O)CCC2=O)Oc2c(ccc3ccccc23)C1c1ccc(F)c(Cl)c1 (stereo not drawn) | 111 | 53 |  | -16 | 10 | 92 | 98 | 18 | 26 | No reduction | 
 |  |  | N#CC1C(=O)NC2=C(CCc3ccccc32)C1c1cccc([N+](=O)[O-])c1 (stereo not drawn) | 20 | 36 |  | 8 | 6 | 15 | 22 | 9 | -7 |  | 
 |  |  | N#CC1=C(N)Oc2c(ccc3ccccc23)C1c1ccc(F)c(Cl)c1 (stereo not drawn) |  | 111 |  | 38 | 83 | 86 | 98 |  | 37 |  | 81
 |  |  | N#CC1=C(N)OC2=C(CCc3ccccc32)C1c1cccc([N+](=O)[O-])c1 (stereo not drawn) | 104 | 76 |  | 58 | 87 | 95 | 99 | 29 | 39 |  | 
5 | 6 |  | N#CC1=C(N2C(=O)CCC2=O)Oc2c(ccc3ccccc23)C1c1cccc([N+](=O)[O-])c1 (stereo not drawn) | 86 | 69 | 48 | 1 | -4 | 87 | 97 | 9 | 17 |  | 
 |  |  | N#CC1=C(N)Oc2c(ccc3ccccc23)C1c1cccnc1 (stereo not drawn) | 100 | 83 |  | 11 | 89 | 95 |  | 0 | 75 |  | 
 |  |  | N#Cc1c(O)nc2c(c1-c1cccc([N+](=O)[O-])c1)CCc1ccccc1-2 | 36 | 3 |  |  |  |  |  |  | 36 |  | 
